From patent US6537744B1, “Use of biomarkers in saliva to evaluate the toxicity of agents and the function of tissues in both biomedical and environmental applications” (priority 1995, dated 2003)
Several values for one entry are separate records, joined by “and”; a condition that tells them apart may be missing. Identical values can stand only once.

Assays:
[1] = system: carboxylase in human saliva; experiment: Inhibition of carboxylase in human saliva (p-nitrophenylvalerate hydrolysis, 400 nm); assay type: biochemical; settings: for inhibition of carboxylase (in words): human saliva
Method: The carboxylase activity in saliva samples is monitored by the hydrolysis of p-nitrophenylvalerate to the readily detectable p-nitrophenol. The concentration of p-nitrophenol in the sample is measured spectrophotometrically at 400 nm, and the value is calculated from p-nitrophenol standard curve (Table 3 and FIG. 4). Values for carboxylase activity in saliva (nmol. min-1 per mL of saliva) are presented in Tables 4-8 and showing in FIG. 5 and FIG. 6. The average specific activity for carboxylase in human saliva is about 47 nmol min^−1 per mL.
The assay for carboxylase consists of 4 mL of tris-HCl buffer (pH 7.0) that contain 25 μL of p-nitrophenylvalerate (13.8 mg/mL of alcohol) and 50-500 μL of human saliva. […] In the inhibition study, the agent is incubated with saliva for about 15-20 minutes before the addition of p-nitrophenylvalerate. Organophosphate concentration is verified by gas chromatography using standard methods as described by Knaak et al. (1993).

[2] = system: acetylcholinesterase in human saliva; experiment: Inhibition of acetylcholinesterase in human saliva (acetylthiocholine iodide/DTNB, 405 nm); assay type: biochemical; settings: for inhibition of acetylcholinesterase (in words): human saliva
Method: The hydrolysis of acetylthiocholine iodide (an analog of acetylcholine iodides) by the saliva enzyme or enzymes is measured by generating the yellow 5-thio-2-nitrobenzoate with an absorbance maximum at 405 nm. The rate of change of absorbance is directly proportional to acetylcholinesterase activity. In this procedure, 0.1-1 mL of saliva (3.261 mg protein/mL) is incubated with 100 μL of acetylthiocholine iodide (0.018M) (lot #10H0653 Sigma) for 30-180 minute at 37° C. in 4.0 mL phosphate buffer (pH 7.8). After the incubation, a 0.2 mL of DTNB is added and the sample is read at 405 nm. The enzyme activity is calculated from glutathione standard curve (Table 9 and FIG. 9). Values for AChE activity in human saliva and enzyme kinetics are presented in Tables 10-14 and show in FIG. 10 through FIG. 14.
The AChE specific activity in saliva is about 4 nmol minute^−1 per mL of saliva. […] The percent of enzyme inhibition by organophosphate is calculated and presented in Tables 13-14 and showing in FIG. 15.

[3] = 22 μg/mL, Test #2, 50 μL saliva, 20 min preincubation
[4] = 29 μg/ml in Tris/Citrate, test #1, 200 μL saliva, 15 min preincubation, 37° C.
[5] = 60 μg/mL, Test #2, 50 μL saliva, 20 min preincubation
[6] = 500 μg/ml, test #1, 200 μL saliva, 15 min preincubation, 37° C.
[7] = 240 μg of isofenphos in 4.0 mL, Test #2, 200 μL saliva, 37° C.

| SMILES | % Act. [1, 3] [%] | Absorb. at 400 nm for 20 min. [1, 3] | Absorb. at 400 nm for 100 min. [1, 3] | % Inhib. [1, 4] [%] | Absorb. at 400 nm for 20 min. [1, 4] | Absorb. at 400 nm for 60 min. [1, 4] | inhibition of carboxylase (in words) [1] | inhibition of acetylcholinesterase (in words) [2] | % Act. [1, 5] [%] | Absorb. at 400 nm for 65 min. [1, 5] | Absorb. at 400 nm for 100 min. [1, 5] | % Inhib. [1, 6] [%] | Absorb. at 400 nm for 20 min. [1, 6] | Absorb. at 400 nm for 60 min. [1, 6] | Absorb. at 405 nm for 50 min. [2, 7] | Absorb. at 405 nm for 110 min. [2, 7] | Absorb. at 405 nm for 165 min. [2, 7] | Activity ([2]; 240 μg of isofenphos in 4.0 mL, Test #2, 200 μL saliva, 37° C. (no inhibitor: 1.14)) [nmol/min] |
| --- | --- | --- | --- | --- | --- | --- | --- | --- | --- | --- | --- | --- | --- | --- | --- | --- | --- | --- |
| CCOP(=O)(OCC)Oc1ccc([N+](=O)[O-])cc1 [Paraoxon, paraoxon] | 40 | .23 | .76 | 99 | .03 | .14 | inhibited | inhibited | – | – | – | – | – | – | – | – | – | – |
| CCOP(=S)(NC(C)C)Oc1ccccc1C(=O)OC(C)C (centres unmarked) [Isofenphos, isofenphos] | – | – | – | – | – | – | inhibited | inhibited | 92 | 2.0 and 1.1 | 2.0 and 1.5 | 84 | .33 | .75 | .41 | .43 | .51 | 1.02 |
